Measurements: ChEMBL document CHEMBL3992562, “Multifunctional thioxanthone derivatives with acetylcholinesterase, monoamine oxidases and β-amyloid aggregation inhibitory activities as potential agents against Alzheimer's disease” (Bioorg Med Chem, 2017)
Active and inactive are the calls of the source. No cut-off for these calls is given here.

What was measured:
Homo sapiens = species on record: Homo sapiens; experiment: Selectivity index, ratio of IC50 for recombinant human MAO-A expressed in baculovirus infected BTI insect cells to IC50 for recombinant human MAO-B expressed in baculovirus infected BTI insect cells
[1] = target: T1, Amine oxidase [flavin-containing] B (Homo sapiens, UniProt P27338); experiment: Inhibition of recombinant human MAO-B expressed in baculovirus infected BTI insect cells using kynuramine as substrate after 30 mins by fluorimetric method; type: cell-based
T1 sequence (P27338 whole entry): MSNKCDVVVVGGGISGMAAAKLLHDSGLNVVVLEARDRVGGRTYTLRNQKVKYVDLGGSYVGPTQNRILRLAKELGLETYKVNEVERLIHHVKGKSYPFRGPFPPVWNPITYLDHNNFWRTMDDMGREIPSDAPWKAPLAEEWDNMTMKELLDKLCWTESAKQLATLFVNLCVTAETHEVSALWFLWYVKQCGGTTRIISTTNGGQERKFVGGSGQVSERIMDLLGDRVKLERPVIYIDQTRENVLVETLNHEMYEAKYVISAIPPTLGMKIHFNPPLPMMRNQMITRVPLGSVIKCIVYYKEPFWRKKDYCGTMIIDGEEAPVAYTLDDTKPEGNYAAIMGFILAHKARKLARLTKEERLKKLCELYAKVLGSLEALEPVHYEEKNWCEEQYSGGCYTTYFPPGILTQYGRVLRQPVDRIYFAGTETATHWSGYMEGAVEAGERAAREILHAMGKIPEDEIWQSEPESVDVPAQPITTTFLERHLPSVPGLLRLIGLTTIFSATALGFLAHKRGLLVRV

[2] = Inhibition of cupric ion-mediated amyloid beta (1 to 42) aggregation at 25 uM measured after 24 hrs by ThT fluorescence assay relative to control
Acetylcholinesterase = Acetylcholinesterase (Electrophorus electricus, UniProt O42275); experiment: Inhibition of electric eel AChE using acetylthiocholine iodide as substrate measured after 15 mins by Ellman's method
Chain of Acetylcholinesterase (O42275 whole entry): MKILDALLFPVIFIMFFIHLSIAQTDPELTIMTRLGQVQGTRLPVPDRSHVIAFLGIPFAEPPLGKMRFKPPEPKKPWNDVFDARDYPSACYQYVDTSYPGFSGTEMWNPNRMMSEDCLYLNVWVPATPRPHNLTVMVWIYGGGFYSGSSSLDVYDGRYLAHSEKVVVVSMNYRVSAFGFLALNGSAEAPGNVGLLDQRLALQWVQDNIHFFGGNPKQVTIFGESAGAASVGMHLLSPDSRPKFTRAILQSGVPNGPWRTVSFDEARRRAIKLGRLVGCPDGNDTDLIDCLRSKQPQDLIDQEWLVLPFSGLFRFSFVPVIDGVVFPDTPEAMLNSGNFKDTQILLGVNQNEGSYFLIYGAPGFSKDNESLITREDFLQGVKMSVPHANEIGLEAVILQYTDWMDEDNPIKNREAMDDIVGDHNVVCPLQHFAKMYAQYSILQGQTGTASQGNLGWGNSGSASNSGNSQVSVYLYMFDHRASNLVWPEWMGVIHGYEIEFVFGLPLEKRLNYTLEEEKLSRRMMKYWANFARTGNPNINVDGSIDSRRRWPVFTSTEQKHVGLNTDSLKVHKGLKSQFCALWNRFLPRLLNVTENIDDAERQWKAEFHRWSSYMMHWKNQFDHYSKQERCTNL

[3] = target: Amyloid-beta precursor protein (Homo sapiens) (UniProt P05067); experiment: Inhibition of self-induced amyloid beta (1 to 42) (unknown origin) aggregation at 25 uM measured after 24 hrs by ThT fluorescence assay relative to control
Chain of Amyloid-beta precursor protein (Homo sapiens) (P05067 whole entry): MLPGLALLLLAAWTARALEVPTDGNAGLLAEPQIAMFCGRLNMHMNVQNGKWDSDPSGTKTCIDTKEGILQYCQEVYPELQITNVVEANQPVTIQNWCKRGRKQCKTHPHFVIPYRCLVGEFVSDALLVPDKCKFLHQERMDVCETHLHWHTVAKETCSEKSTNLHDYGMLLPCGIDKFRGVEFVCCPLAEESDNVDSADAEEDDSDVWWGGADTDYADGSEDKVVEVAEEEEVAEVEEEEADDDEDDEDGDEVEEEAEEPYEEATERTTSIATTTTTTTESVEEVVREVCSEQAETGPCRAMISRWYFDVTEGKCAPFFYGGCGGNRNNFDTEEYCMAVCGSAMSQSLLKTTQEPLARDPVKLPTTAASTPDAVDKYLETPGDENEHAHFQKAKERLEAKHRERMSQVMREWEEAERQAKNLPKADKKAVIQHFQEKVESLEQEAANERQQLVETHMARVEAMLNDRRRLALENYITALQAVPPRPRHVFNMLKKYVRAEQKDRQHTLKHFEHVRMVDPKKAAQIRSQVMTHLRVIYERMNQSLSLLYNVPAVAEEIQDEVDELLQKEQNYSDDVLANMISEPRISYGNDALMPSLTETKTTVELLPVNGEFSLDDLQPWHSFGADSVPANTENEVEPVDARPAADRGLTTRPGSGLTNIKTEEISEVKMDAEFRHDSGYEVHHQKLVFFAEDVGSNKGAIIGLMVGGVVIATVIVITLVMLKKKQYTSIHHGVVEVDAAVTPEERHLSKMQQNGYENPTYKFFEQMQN

[4] = target: T2, Amine oxidase [flavin-containing] A (Homo sapiens, UniProt P21397); experiment: Inhibition of recombinant human MAO-A expressed in baculovirus infected BTI insect cells using kynuramine as substrate after 30 mins by fluorimetric method
T2 sequence (P21397 whole entry): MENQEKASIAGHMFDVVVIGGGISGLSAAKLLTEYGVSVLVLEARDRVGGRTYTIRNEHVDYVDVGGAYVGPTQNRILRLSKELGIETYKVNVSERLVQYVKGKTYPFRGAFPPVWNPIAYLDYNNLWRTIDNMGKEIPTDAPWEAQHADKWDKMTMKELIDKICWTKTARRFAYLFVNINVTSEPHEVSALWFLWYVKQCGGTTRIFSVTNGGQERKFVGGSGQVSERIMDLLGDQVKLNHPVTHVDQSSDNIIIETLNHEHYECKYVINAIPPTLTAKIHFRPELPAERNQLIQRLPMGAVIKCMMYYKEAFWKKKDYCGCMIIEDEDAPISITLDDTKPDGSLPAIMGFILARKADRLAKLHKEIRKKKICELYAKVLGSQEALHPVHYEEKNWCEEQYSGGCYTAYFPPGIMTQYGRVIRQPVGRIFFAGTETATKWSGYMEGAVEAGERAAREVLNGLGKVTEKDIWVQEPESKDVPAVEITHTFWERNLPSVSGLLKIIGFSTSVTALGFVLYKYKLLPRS

[5] = Antioxidant activity assessed as trolox equivalent of AAPH-induced radical scavenging activity at 5 uM incubated for 15 mins prior to APPH challenge measured every minute for 90 mins by ORAC-FL assay; type: functional
[6] = tested on: BuChE (butyrylcholinesterase); experiment: Inhibition of rat serum BuChE at 50 uM using S-butylthiocholine iodide as substrate measured after 15 mins by Ellman's method relative to control; details: probe S-butylthiocholine iodide
[7] = Inhibition of rat serum BuChE using S-butylthiocholine iodide as substrate measured after 15 mins by Ellman's method
[8] = Permeability of the compound at 100 ug/ml after 18 hrs by PAMPA; type: physicochemical; details: read-out: permeability
[9] = Cytotoxicity against human SH-SY5Y cells assessed as cell viability at 1 uM after 24 hrs by MTT assay relative to control; type: cell-based; details: read-out: Activity
[10] = Cytotoxicity against human SH-SY5Y cells assessed as cell viability at 10 uM after 24 hrs by MTT assay relative to control; type: cell-based; details: read-out: Activity
[11] = Metal chelating activity assessed as Fe2+-compound complex formation at 37.5 uM after 30 mins by UV-visible spectrometry; type: functional
[12] = Metal chelating activity assessed as Zn2+-compound complex formation at 37.5 uM after 30 mins by UV-visible spectrometry; type: functional
[13] = target: Acetylcholinesterase (Electrophorus electricus) (UniProt O42275); experiment: Mixed-type inhibition of electric eel AChE using acetylthiocholine iodide as substrate preincubated for 15 mins followed by substrate addition by Lineweaver-Burk plot analysis
Chain of Acetylcholinesterase (Electrophorus electricus) (O42275 24-633 limits assumed): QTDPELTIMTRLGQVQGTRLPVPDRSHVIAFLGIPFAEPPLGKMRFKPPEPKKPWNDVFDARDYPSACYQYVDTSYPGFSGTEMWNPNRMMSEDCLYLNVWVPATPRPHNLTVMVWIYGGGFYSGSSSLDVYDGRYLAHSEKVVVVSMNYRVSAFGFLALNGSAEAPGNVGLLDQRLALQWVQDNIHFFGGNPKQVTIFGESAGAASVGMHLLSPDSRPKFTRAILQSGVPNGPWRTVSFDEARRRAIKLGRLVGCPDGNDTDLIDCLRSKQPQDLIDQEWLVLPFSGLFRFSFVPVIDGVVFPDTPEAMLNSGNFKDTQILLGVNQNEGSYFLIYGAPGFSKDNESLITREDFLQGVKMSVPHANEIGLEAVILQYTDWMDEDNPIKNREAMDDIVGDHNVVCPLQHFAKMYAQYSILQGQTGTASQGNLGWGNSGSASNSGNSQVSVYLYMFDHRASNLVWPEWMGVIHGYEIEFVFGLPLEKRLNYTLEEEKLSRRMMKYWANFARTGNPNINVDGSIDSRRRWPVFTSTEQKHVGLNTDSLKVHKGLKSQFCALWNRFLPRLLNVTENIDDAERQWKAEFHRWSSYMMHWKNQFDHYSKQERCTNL

[14] = Metal chelating activity assessed as Cu2+-compound complex formation at 37.5 uM after 30 mins by UV-visible spectrometry; type: functional
[15] = Metal chelating activity assessed as mole fraction of compound required to show 1:1.5 stoichiometry for Cu2+-compound complex at 37.5 uM after 30 mins by UV-visible spectrometry; type: functional
[16] = Cytotoxicity against human SH-SY5Y cells assessed as cell viability at 100 uM after 24 hrs by MTT assay relative to control; type: cell-based; details: read-out: Activity
[17] = Metal chelating activity assessed as Al3+-compound complex formation at 37.5 uM after 30 mins by UV-visible spectrometry; type: functional

Row | Compound | Ratio IC50 (Homo sapiens) | IC50 [1] | inhibition [2] | IC50 (Acetylcholinesterase) | inhibition [3] | IC50 [4] | Activity [5] | inhibition at 0.25 h, 50 µM [6] | IC50 [7] | Papp at 18 h, 100 ug/ml [8] | viability at 24 h, 1 µM [9] | viability at 24 h, 10 µM [10] | Activity [11] | Activity [12] | inhibition [13] | Activity [14] | Activity [15] | viability at 24 h, 100 µM [16] | Activity [17]
1 | CN(CCCCOc1cc(O)c2c(=O)c3ccccc3sc2c1)Cc1ccccc1 | 1.54 | 370 nM | 88.6% | 12400 nM | 79.5% | 570 nM | 1.18 µMequiv/µM | < 5% |  |  |  |  |  |  |  |  |  |  | 
2 | CCN(CCCCOc1cc(O)c2c(=O)c3ccccc3sc2c1)Cc1ccc(N(C)C)cc1 | 0.45 | 2200 nM | 81.9% | 25400 nM | 77.1% | 1000 nM | 1.5 µMequiv/µM | 7.15% |  |  |  |  |  |  |  |  |  |  | 
3 | COc1cc(/C=C/C(=O)CC(=O)/C=C/c2ccc(O)c(OC)c2)ccc1O |  |  | 70% |  |  |  | 2.43 µMequiv/µM |  |  |  |  |  |  |  |  |  |  |  | 
4 | CN(CCCOc1cc(O)c2c(=O)c3ccccc3sc2c1)Cc1ccccc1 | 9.25 | 1730 nM | 81.1% | 11200 nM | 40.5% | 16000 nM | 0.48 µMequiv/µM | < 5% |  |  |  |  |  |  |  |  |  |  | 
5 | CCN(CCCCCCOc1cc(O)c2c(=O)c3ccccc3sc2c1)Cc1ccc(N(C)C)cc1 | 3.21 | 390 nM | 91.3% | 33800 nM | 76.3% | 1250 nM | 1.37 µMequiv/µM | < 5% |  |  |  |  |  |  |  |  |  |  | 
6 | CCN(CCCCOc1cc(O)c2c(=O)c3ccccc3sc2c1)Cc1ccccc1N(C)C | 0.76 | 2020 nM | 82.1% | 2880 nM | 72.1% | 1540 nM | 0.95 µMequiv/µM | 30.3% |  |  |  |  |  |  |  |  |  |  | 
7 | CCN(CCCCOc1ccc(-c2coc3cc(OCCCCN(CC)Cc4ccccc4OC)cc(O)c3c2=O)cc1)Cc1ccccc1OC |  |  | 77.8% |  |  |  | 0.3 µMequiv/µM | 20% |  |  |  |  |  |  |  |  |  |  | 
8 | O=c1c2ccccc2sc2cc(O)cc(O)c12 | 0.93 | 300 nM | 31.4% | 38900 nM | 9.5% | 280 nM | 0.42 µMequiv/µM | < 5% |  |  |  |  |  |  |  |  |  |  | 
9 | COc1ccccc1CN(C)CCCCOc1cc(O)c2c(=O)c3ccccc3sc2c1 | 1.05 | 590 nM | 88% | 9160 nM | 79.9% | 620 nM | 1.04 µMequiv/µM | 5.62% |  |  |  |  |  |  |  |  |  |  | 
10 | COc1cc2c(cc1OC)C(=O)C(CC1CCN(Cc3ccccc3)CC1)C2 (centres undefined) [DONEPEZIL] |  |  |  |  |  |  |  |  | 21400 nM |  |  |  |  |  |  |  |  |  | 
11 | CCN(CCCOc1cc(O)c2c(=O)c3ccccc3sc2c1)Cc1ccc(N(C)C)cc1 | 0.79 | 3550 nM | 85.4% | 17700 nM | 64.8% | 2790 nM | 1.38 µMequiv/µM | < 5% |  |  |  |  |  |  |  |  |  |  | 
12 | CCN(CCCCCCOc1cc(O)c2c(=O)c3ccccc3sc2c1)Cc1ccccc1OC | 2.83 | 460 nM | 86.3% | 11500 nM | 78.7% | 1300 nM | 0.83 µMequiv/µM | 13.9% |  |  |  |  |  |  |  |  |  |  | 
13 | CCN(CCCOc1cc(O)c2c(=O)c3ccccc3sc2c1)Cc1ccccc1N(C)C | 1.59 | 3730 nM | 75.7% | 250 nM | 46.9% | 5940 nM | 0.35 µMequiv/µM | 22.4% |  |  |  |  |  |  |  |  |  |  | 
14 | CN(CCCCCCOc1cc(O)c2c(=O)c3ccccc3sc2c1)Cc1ccccc1 | 1.63 | 350 nM | 76.8% | 320 nM | 47.5% | 570 nM | 0.37 µMequiv/µM | < 5% |  |  |  |  |  |  |  |  |  |  | 
15 | CCN(CCCCCCOc1cc(O)c2c(=O)c3ccccc3sc2c1)Cc1ccccc1 | 4.36 | 330 nM | 76.4% | 580 nM | 50.6% | 1440 nM | 0.17 µMequiv/µM | 8.83% |  | 4.12 ×10⁻⁶ cm/s |  |  |  |  |  |  |  |  | 
16 | COc1ccccc1CN(C)CCCOc1cc(O)c2c(=O)c3ccccc3sc2c1 | 1.04 | 6090 nM | 77.8% | 28700 nM | 45.2% | 6310 nM | 0.22 µMequiv/µM | 30.2% |  |  |  |  |  |  |  |  |  |  | 
17 | CCN(CCCOc1cc(O)c2c(=O)c3ccccc3sc2c1)Cc1ccccc1 | 1.85 | 7130 nM | 70.9% | 18400 nM | 46.9% | 13200 nM | 0.59 µMequiv/µM | 31.8% |  |  |  |  |  |  |  |  |  |  | 
18 | CCN(CCCOc1cc(O)c2c(=O)c3ccccc3sc2c1)Cc1ccccc1OC | 4.35 | 1880 nM | 80% | 2790 nM | 68.2% | 8170 nM | 0.68 µMequiv/µM | 17.3% |  |  |  |  |  |  |  |  |  |  | 
19 | CCN(CCCCOc1cc(O)c2c(=O)c3ccccc3sc2c1)Cc1ccccc1 | 1.26 | 270 nM | 82.1% | 22000 nM | 75.8% | 340 nM | 1 µMequiv/µM | < 5% |  |  |  |  |  |  |  |  |  |  | 
20 | CCN(CCCCOc1cc(O)c2c(=O)c3ccccc3sc2c1)Cc1ccccc1OC | 1.16 | 880 nM | 82% | 15500 nM | 89.4% | 1020 nM | 0.57 µMequiv/µM | < 5% |  |  |  |  |  |  |  |  |  |  | 
21 | CCN(CCCCCCOc1cc(O)c2c(=O)c3ccccc3sc2c1)Cc1ccccc1N(C)C | 1.12 | 900 nM | 87.7% | 590 nM | 74.8% | 1010 nM | 0.74 µMequiv/µM | 28.7% |  | 3.49 ×10⁻⁶ cm/s | 99.7% | 96.8% | Active | inactive | Active | Active | 1.5 molar ratio | 68.1% | inactive
22 | COc1ccccc1CN(C)CCCCCCOc1cc(O)c2c(=O)c3ccccc3sc2c1 | 2.71 | 380 nM | 86.5% | 4280 nM | 68% | 1030 nM | 0.66 µMequiv/µM | 14.9% |  |  |  |  |  |  |  |  |  |  | 
